Laboratory results taken from PubChem BioAssay AID248 (DTP/NCI, 2004).
Where “and” joins values, the source holds several entries; their conditions need not be identical. Equal values may be shown once. Inconclusive results and toxic doses are left out. Cut-off read from the data, not from the text of the source: active = T/C of 150% or more; inactive = T/C below 125%.

Tested on: L1210 leukemia ip in BDF1 mice, survival T/C
Assay: NCI In Vivo Anticancer Drug Screen. Data for tumor model L1210 Leukemia (intraperitoneal) in B6D2F1 (BDF1) mice
Details: endpoint: mean survival time, higher = longer survival
Summary of the method: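 Tumor cells were implanted, animals were treated, and survival was followed. The result divides the treated measurement by the vehicle-control measurement.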

[1] = dose: 100.0 mg/kg/injection, schedule: Q01DX009 (ip), vehicle: Klucel (hydroxypropylcellulose) (HPC)
[2] = dose: 100.0 mg/kg/injection, schedule: Q04DX003 (ip), vehicle: Klucel (hydroxypropylcellulose) (HPC)
[3] = dose: 200.0 mg/kg/injection, schedule: Q01DX009 (ip), vehicle: Klucel (hydroxypropylcellulose) (HPC)
[4] = dose: 200.0 mg/kg/injection, schedule: Q04DX003 (ip), vehicle: Klucel (hydroxypropylcellulose) (HPC)
[5] = dose: 400.0 mg/kg/injection, schedule: Q01DX009 (ip), vehicle: Klucel (hydroxypropylcellulose) (HPC)
[6] = dose: 400.0 mg/kg/injection, schedule: Q04DX003 (ip), vehicle: Klucel (hydroxypropylcellulose) (HPC)
[7] = dose: 25.0 mg/kg/injection, schedule: Q04DX003 (ip), vehicle: saline
[8] = dose: 50.0 mg/kg/injection, schedule: Q04DX003 (ip), vehicle: saline
[9] = dose: 100.0 mg/kg/injection, schedule: Q04DX003 (ip), vehicle: saline
[10] = dose: 100.0 mg/kg/injection, schedule: Q04DX002 (ip), vehicle: Klucel (hydroxypropylcellulose) (HPC)
[11] = dose: 100.0 mg/kg/injection, schedule: Q01DX009 (ip), vehicle: saline with Tween-80
[12] = dose: 200.0 mg/kg/injection, schedule: Q01DX009 (ip), vehicle: saline with Tween-80
[13] = dose: 400.0 mg/kg/injection, schedule: Q01DX009 (ip), vehicle: saline with Tween-80
[14] = dose: 100.0 mg/kg/injection, schedule: Q01DX001 (ip), vehicle: saline

Measured: T/C

C=CCOc1ccc2c(C)cc(=O)oc2c1C
inactive: dose: 100.0 mg/kg/injection, schedule: Q01DX008 (ip), vehicle: Klucel (hydroxypropylcellulose) (HPC) 93 % of control | [1] 94 % of control | [2] 96 % of control | dose: 200.0 mg/kg/injection, schedule: Q01DX008 (ip), vehicle: Klucel (hydroxypropylcellulose) (HPC) 88 % of control | [3] 96 % of control | [4] 96 % of control | dose: 400.0 mg/kg/injection, schedule: Q01DX008 (ip), vehicle: Klucel (hydroxypropylcellulose) (HPC) 86 % of control | [5] 97 % of control | [6] 96 % of control

CCC(C#N)(c1ccccc1)c1ccccc1
inactive: [1] 96 % of control | [2] 98 % of control | [3] 94 % of control | [4] 94 % of control | [5] 94 % of control | [6] 98 % of control

CCCCOP(=O)(OCCCC)O/C(C)=C(\C)OP(=O)(OCC)OCC
inactive: dose: 25.0 mg/kg/injection, schedule: Q04DX002 (ip), vehicle: saline 97 % of control and 102 % of control | [7] 102 % of control | dose: 50.0 mg/kg/injection, schedule: Q04DX002 (ip), vehicle: saline 95 % of control and 97 % of control | [8] 108 % of control | [9] 108 % of control | dose: 200.0 mg/kg/injection, schedule: Q04DX002 (ip), vehicle: saline 97 % of control

O=S(=O)(c1ccccc1)C(CC(S(=O)(=O)c1ccccc1)S(=O)(=O)c1ccccc1)S(=O)(=O)c1ccccc1
inactive: dose: 100.0 mg/kg/injection, schedule: Q04DX002 (ip), vehicle: saline with Tween-80 119 % of control | dose: 200.0 mg/kg/injection, schedule: Q04DX002 (ip), vehicle: saline with Tween-80 97 % of control | dose: 400.0 mg/kg/injection, schedule: Q04DX002 (ip), vehicle: saline with Tween-80 90 % of control

O=C(Nc1ccccc1C(F)(F)F)c1ccc(F)cc1
inactive: dose: 100.0 mg/kg/injection, schedule: Q01DX001 (ip), vehicle: Klucel (hydroxypropylcellulose) (HPC) 99 % of control | [1] 95 % of control and 103 % of control | [10] 98 % of control and 121 % of control | [2] 105 % of control | dose: 200.0 mg/kg/injection, schedule: Q01DX001 (ip), vehicle: Klucel (hydroxypropylcellulose) (HPC) 95 % of control | [3] 94 % of control and 95 % of control | dose: 200.0 mg/kg/injection, schedule: Q04DX002 (ip), vehicle: Klucel (hydroxypropylcellulose) (HPC) 100 % of control and 101 % of control | [4] 100 % of control | dose: 400.0 mg/kg/injection, schedule: Q01DX001 (ip), vehicle: Klucel (hydroxypropylcellulose) (HPC) 104 % of control | [5] 95 % of control and 97 % of control | dose: 400.0 mg/kg/injection, schedule: Q04DX002 (ip), vehicle: Klucel (hydroxypropylcellulose) (HPC) 96 % of control and 100 % of control | [6] 113 % of control

CCCCCCCCCCCCCCCCCC(O)CCCCCCCCCCCCCCCCC
inactive: dose: 100.0 mg/kg/injection, schedule: Q04DX003 (ip), vehicle: acetone 94 % of control | dose: 200.0 mg/kg/injection, schedule: Q04DX003 (ip), vehicle: acetone 96 % of control | dose: 400.0 mg/kg/injection, schedule: Q04DX003 (ip), vehicle: acetone 86 % of control

COC(=O)N1C2C=CC(C2)N1C(=O)OC
inactive: dose: 50.0 mg/kg/injection, schedule: Q01DX009 (ip), vehicle: DMSO 96 % of control | dose: 100.0 mg/kg/injection, schedule: Q01DX009 (ip), vehicle: DMSO 93 % of control | dose: 100.0 mg/kg/injection, schedule: Q04DX003 (ip), vehicle: DMSO 97 % of control | dose: 200.0 mg/kg/injection, schedule: Q04DX003 (ip), vehicle: DMSO 95 % of control

CCOC(=O)/C=C1\NC(=O)N(CCCN2C(=O)N/C(=C\C(=O)OCC)C2=O)C1=O
inactive: [11] 97 % of control

CCOC(=O)CNC(=O)NCCc1ccccc1
inactive: [11] 112 % of control | [12] 96 % of control | [13] 87 % of control

CC1(C)CC(=O)C(C)(CCc2ccccc2)C(=O)C1
inactive: dose: 100.0 mg/kg/injection, schedule: Q04DX003 (ip), vehicle: saline with Tween-80 97 % of control | dose: 200.0 mg/kg/injection, schedule: Q04DX003 (ip), vehicle: saline with Tween-80 98 % of control | dose: 400.0 mg/kg/injection, schedule: Q04DX003 (ip), vehicle: saline with Tween-80 95 % of control

COc1ccc(C(C)CO)cc1 (stereo not drawn)
inactive: dose: 50.0 mg/kg/injection, schedule: Q01DX009 (ip), vehicle: saline with Tween-80 102 % of control | [11] 94 % of control | [12] 102 % of control

O=c1ccn(CCCOc2ccccc2)c(=O)[nH]1
inactive: dose: 25.0 mg/kg/injection, schedule: Q04DX002 (ip), vehicle: Klucel (hydroxypropylcellulose) (HPC) 102 % of control | dose: 50.0 mg/kg/injection, schedule: Q04DX002 (ip), vehicle: Klucel (hydroxypropylcellulose) (HPC) 102 % of control | [10] 106 % of control

CNC(=O)NNc1ccccc1
inactive: [11] 101 % of control | [12] 101 % of control | [13] 105 % of control

Nc1ccc(C(=O)Nc2ccc(N(CCCl)CCCl)cc2)cc1
inactive: dose: 12.5 mg/kg/injection, schedule: Q01DX009 (ip), vehicle: saline 117 % of control | dose: 25.0 mg/kg/injection, schedule: Q01DX009 (ip), vehicle: saline 98 % of control and 114 % of control | dose: 50.0 mg/kg/injection, schedule: Q01DX009 (ip), vehicle: saline 120 % of control | [8] 115 % of control | dose: 100.0 mg/kg/injection, schedule: Q01DX009 (ip), vehicle: saline 114 % of control | [9] 118 % of control | dose: 200.0 mg/kg/injection, schedule: Q04DX003 (ip), vehicle: saline 97 % of control

CC(C)(C)OC(=O)CC1(C)CCC2C1C(=O)OC2(C)C (stereo not drawn)
inactive: [7] 98 % of control | [8] 98 % of control | [14] 91 % of control | [9] 102 % of control

O=C(C[n+]1cccc(C(=O)Nc2ccccc2)c1)Nc1ccccc1
inactive: [9] 95 % of control

Cc1ccccc1N=C1C(=O)Nc2ccccc21
inactive: dose: 100.0 mg/kg/injection, schedule: Q01DX001 (ip), vehicle: other 115 % of control | dose: 200.0 mg/kg/injection, schedule: Q01DX001 (ip), vehicle: other 91 % of control | dose: 400.0 mg/kg/injection, schedule: Q01DX001 (ip), vehicle: other 107 % of control

NC(N)=NCCCCCCN=C(N)N
inactive: dose: 6.25 mg/kg/injection, schedule: Q01DX Z (oral), vehicle: saline 106 % of control | dose: 6.25 mg/kg/injection, schedule: Q04DX003 (ip), vehicle: saline with Tween-80 100 % of control | dose: 12.5 mg/kg/injection, schedule: Q01DX Z (oral), vehicle: saline 103 % of control | dose: 12.5 mg/kg/injection, schedule: Q04DX003 (ip), vehicle: saline with Tween-80 100 % of control | dose: 25.0 mg/kg/injection, schedule: Q01DX Z (oral), vehicle: saline 103 % of control | dose: 25.0 mg/kg/injection, schedule: Q04DX003 (ip), vehicle: saline with Tween-80 99 % of control and 101 % of control

CCOc1cc(/C=N\Nc2nncn2N)c(C)cc1N(CCCl)CCCl
inactive: dose: 1.3 mg/kg/injection, schedule: Q01DX015 (ip), vehicle: carboxymethylcellulose (CMC) 107 % of control | dose: 1.5 mg/kg/injection, schedule: Q01DX015 (ip), vehicle: carboxymethylcellulose (CMC) 120 % of control | dose: 2.6 mg/kg/injection, schedule: Q01DX015 (ip), vehicle: carboxymethylcellulose (CMC) 100 % of control | dose: 15.0 mg/kg/injection, schedule: Q01DX015 (ip), vehicle: carboxymethylcellulose (CMC) 102 % of control and 109 % of control | dose: 22.0 mg/kg/injection, schedule: Q01DX001 (ip), vehicle: carboxymethylcellulose (CMC) 118 % of control | dose: 50.0 mg/kg/injection, schedule: Q01DX001 (ip), vehicle: carboxymethylcellulose (CMC) 110 % of control | dose: 100.0 mg/kg/injection, schedule: Q01DX001 (ip), vehicle: carboxymethylcellulose (CMC) 123 % of control | dose: 200.0 mg/kg/injection, schedule: Q01DX001 (ip), vehicle: carboxymethylcellulose (CMC) 89 % of control

O=C1NCC(Nc2ccc(Br)cc2)C(=O)N1 (stereo not drawn)
inactive: dose: 100.0 mg/kg/injection, schedule: Q01DX Z (ip), vehicle: methylcellulose (MC) 96 % of control | dose: 200.0 mg/kg/injection, schedule: Q01DX Z (ip), vehicle: methylcellulose (MC) 94 % of control
